Key:
SET-2 cells = details: human megakaryoblastic cell line; cited from earlier work
JAK3 = JAK3 (Homo sapiens, UniProt P52333); details: read-out: IC50 for JAK3 kinase inhibition; cited from earlier work
HEL cells = test: Cytotoxicity, PrestoBlue assay, HEL cells; type: cell-based; details: Homo sapiens, 72 h, read-out: IC50 toward HEL cells
TF1 cells [1] = test: Annexin V and dead cell flow cytometric apoptosis analysis; type: cell-based, human; details: TF1, IC25, IC50, IC75, 24 h
TF1 cells [2] = test: Cytotoxicity, PrestoBlue assay, TF1 cells; type: cell-based; details: Homo sapiens, TF-1, 72 h, read-out: IC50 toward TF1 cells
JAK1 = details: read-out: IC50 for JAK1; cited from earlier work

Sequence of JAK3 (P52333 781-1124 limits assumed): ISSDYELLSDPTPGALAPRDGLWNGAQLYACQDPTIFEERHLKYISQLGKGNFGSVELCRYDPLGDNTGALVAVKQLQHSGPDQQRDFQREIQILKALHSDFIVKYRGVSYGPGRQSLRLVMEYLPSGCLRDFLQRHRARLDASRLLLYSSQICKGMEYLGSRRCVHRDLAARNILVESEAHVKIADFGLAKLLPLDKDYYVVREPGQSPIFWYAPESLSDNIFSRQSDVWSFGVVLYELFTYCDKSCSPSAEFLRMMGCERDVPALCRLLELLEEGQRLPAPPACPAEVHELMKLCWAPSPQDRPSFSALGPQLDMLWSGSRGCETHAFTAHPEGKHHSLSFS

SMILES: Fc1cc(-c2cccc3ncc(-c4cnn(C5CCNCC5)c4)nc23)cc(F)c1CN1CCOCC1 [NVP-BSK805]
- Apoptosis induction in SET-2 cells (SET-2 cells): induced apoptosis in SET-2 cells

SMILES: COc1cc2ncnc(Nc3ccc(O)cc3)c2cc1OC [WHI-P131]
- IC50 (JAK3): 9 µM

SMILES: N#CC[C@H](C1CCCC1)n1cc(-c2ncnc3[nH]ccc23)cn1 [ruxolitinib]
- IC50 (HEL cells): 19.3 ± 0.64 µM
- Percentage of cell apoptosis vs dose, annexin V (TF1 cells [1]): increased in a dose-dependent manner
- IC50 (TF1 cells [2]): 10.7 ± 0.88 µM

SMILES: C[C@@H]1CCN(C(=O)CC#N)C[C@@H]1N(C)c1ncnc2[nH]ccc12 [tofacitinib]
- Percentage of cell apoptosis vs dose, annexin V (TF1 cells [1]): increased in a dose-dependent manner

From paper PMC9494680 (ACS Omega, 2022)
